Assays:
[1] = target: T1, yeast CSE enzyme (CYS3) (Saccharomyces cerevisiae, UniProt P31373); experiment: H2S production by LC-MS/MS and substrate consumption; assay type: biochemical
T1 construct: full-length CYS3 gene amplified from S288C gDNA, expressed in E. coli (pTrc-CYS3), nickel column, SUMO-tag cut off
T1 sequence (P31373 2-394): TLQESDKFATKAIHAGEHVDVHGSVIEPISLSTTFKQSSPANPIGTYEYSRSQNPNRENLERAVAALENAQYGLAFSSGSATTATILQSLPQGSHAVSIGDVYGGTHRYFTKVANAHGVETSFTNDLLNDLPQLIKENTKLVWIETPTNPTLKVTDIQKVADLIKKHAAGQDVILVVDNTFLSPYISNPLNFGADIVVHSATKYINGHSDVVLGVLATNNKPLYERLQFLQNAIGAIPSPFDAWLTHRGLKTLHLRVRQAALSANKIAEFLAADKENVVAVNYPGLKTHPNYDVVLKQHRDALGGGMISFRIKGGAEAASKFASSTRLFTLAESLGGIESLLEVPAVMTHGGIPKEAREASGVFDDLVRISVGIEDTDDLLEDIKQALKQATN

[2] = target: T1, yeast CSE enzyme (CYS3); experiment: H2S production from SPRC by LC-MS/MS (sulfide dibimane); assay type: biochemical; conditions: 473 uM PAG; 473 uM SPRC as substrate; complete inhibition stated in words

Compound: C#CCSC[C@H](N)C(=O)O [SPRC, S-propargyl-cysteine]
- H2S production by LC-MS/MS and substrate consumption ([1]; 473 uM SPRC): SPRC elimination was accomplished with increased level of hydrogen sulfide in the CYS3 mixture

Compound: C#CCC(N)C(=O)O (racemic) [PAG, propargylglycine]
- H2S production from SPRC by LC-MS/MS (sulfide dibimane) [2]: propargylglycine (PAG) completely inhibited the hydrogen sulfide production of CYS3 by using SPRC

Compound: N[C@@H](CCSC[C@H](N)C(=O)O)C(=O)O [CTT, L-cystathionine]
- H2S production by LC-MS/MS and substrate consumption ([1]; 473 uM CTT): hydrogen sulfide production increased rapidly whereas the amount of L-cystathionine (CTT) decreased accordingly
